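Five concentrations, 48 hours, 96-well plates. GI50 is the concentration that inhibits growth by half.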 Calls of active or inactive are those of the source. Cut-off read from the data, not from the text of the source: active = GI50 up to about 1.1 µM and inactive = higher.
How the values were obtained:
Experiment in all cases: inhibition of tumour cell growth, NCI panel, 48 h
[1] = tested on: ACHN
[2] = tested on: CCRF-CEM
[3] = tested on: COLO 205
[4] = tested on: EKVX
[5] = tested on: HCC 2998
[6] = tested on: HCT-116
[7] = tested on: HOP-92
[8] = tested on: HT-29
[9] = tested on: NCI-H23
[10] = tested on: SK-MEL-5
[11] = tested on: SNB-19
[12] = tested on: SNB-75
[13] = tested on: SR
[14] = tested on: U-251
[15] = tested on: RPMI-8226

Measured: GI50

CC(Oc1ccc2cc(C(=O)c3ccccc3)c(=O)oc2c1)C(=O)O (stereo unspecified)
inactive: [1] > 100 µM | [2] > 100 µM | [3] > 100 µM | [4] > 100 µM | [5] > 100 µM | [6] > 100 µM | [7] > 100 µM | [8] > 100 µM | [9] > 100 µM | [10] > 100 µM | [11] > 100 µM | [12] > 100 µM | [13] > 100 µM | [14] > 100 µM

O=c1c(O)c(-c2ccccc2)n(O)c2ccc(Cl)cc12
inactive: [1] 30.6 µM | [2] 23.9 µM | [3] 36.1 µM | [5] 17.7 µM | [6] 10.9 µM | [7] 34.6 µM | [8] 36.8 µM | [9] 34.7 µM | [15] 23.4 µM | [10] 17.5 µM | [11] 34.2 µM | [12] 29 µM | [13] 28.8 µM | [14] 25.8 µM

CC1=C(C(=O)Nc2ccc([N+](=O)[O-])cc2)C(c2ccc3c(c2)OCO3)C(C(=O)Nc2ccc([N+](=O)[O-])cc2)=C(C)N1
inactive: [1] 10.1 µM | [3] 4.13 µM | [4] 8.2 µM | [5] 7.05 µM | [6] 10.1 µM | [7] 4.08 µM | [8] 6.95 µM | [9] 5.78 µM | [15] 5.04 µM | [11] > 100 µM | [12] 6.18 µM | [13] 1.98 µM | [14] 30.1 µM

CC(C)c1cc(OCC(O)CO)cc(C(C)C)c1 (stereo unspecified)
inactive: [1] > 100 µM | [2] > 100 µM | [3] > 100 µM | [4] > 100 µM | [5] > 100 µM | [6] > 100 µM | [7] > 100 µM | [8] > 100 µM | [9] > 100 µM | [10] > 100 µM | [11] > 100 µM | [12] > 100 µM | [13] > 100 µM | [14] > 100 µM

COC(=O)c1c[nH]cc1CCc1c[nH]cc1C(=O)OC
inactive: [1] > 100 µM | [2] > 100 µM | [3] > 100 µM | [4] > 100 µM | [5] > 100 µM | [6] > 100 µM | [7] > 100 µM | [8] > 100 µM | [9] > 100 µM | [11] > 100 µM | [13] > 100 µM | [14] > 100 µM

CC1CC(C)C(C(O)CC2CC(=O)N(c3ccccc3)C(=O)C2)C(O)C1 (stereo unspecified)
inactive: [1] > 100 µM | [2] > 100 µM | [3] > 100 µM | [4] > 100 µM | [5] > 100 µM | [6] > 100 µM | [7] > 100 µM | [8] > 100 µM | [9] > 100 µM | [15] > 100 µM | [11] > 100 µM | [12] > 100 µM | [13] > 100 µM | [14] > 100 µM
